Assay results from patent US20250145715A1, “B7-H3 TARGETING FUSION PROTEINS AND METHODS OF USE THEREOF” (GT Biopharma, Inc., priority 2021, published 2025).

Legend:
Type in all cases: cell-based, human
[1] = test system: U266 cells; assay: IncuCyte Zoom NK cell killing of U266; conditions: bortezomib 10 nM with B7-H3-TriKE and NK cells, 48 hours
Source text: (§1) FIGS. 7A-7B illustrate the ability of peripheral blood NK cells with or without B7-H3-TriKE to kill myeloma cells in live imaging IncuCyte Zoom assays. FIG. 7A is a graph showing the effects with effector:target (E:T) ratios of 2:1 and 4:1 on MM1S cells. FIG. 7B is a graph showing the effects with effector:target (E:T) ratios of 2:1 and 4:1 on U266 cells.
as §1, with “8A-8D” for “7A-7B”, “8A is a graph showing the effects with effector:target (E:T) ratios of 2:1 and 4:1 on H929 cells. FIG. 8B” for “7A”, “8C is a graph showing the effects with effector:target (E:T) ratios of 2:1 and 4:1 on RPMI-8226 cells. FIG. 8D” for “7B”
FIGS. 9A-9D illustrate the efficacy of B7-H3-TriKE with the proteasome inhibitor bortezomib (10 nM) and the immunomodulatory drug lenalidomide (5 μM). FIG. 9A is a graph showing the effect of the combination therapy on H929 cells after 48 hours. FIG. 9B is a graph showing the effect of the combination therapy on RPMI-8226 cells after 48 hours. FIG. 9C is a graph showing the effect of the combination therapy on MM1S cells after 48 hours. […]

[2] = test system: MM1S cells; assay: IncuCyte Zoom NK cell killing of MM1S; conditions: bortezomib 10 nM or lenalidomide 5 μM with B7-H3 TriKE and NK cells, 48 hours; not statistically significant
Source text: as §1
as §1, with “8A-8D” for “7A-7B”, “8A is a graph showing the effects with effector:target (E:T) ratios of 2:1 and 4:1 on H929 cells. FIG. 8B” for “7A”, “8C is a graph showing the effects with effector:target (E:T) ratios of 2:1 and 4:1 on RPMI-8226 cells. FIG. 8D” for “7B”
(§2) FIGS. 9A-9D illustrate the efficacy of B7-H3-TriKE with the proteasome inhibitor bortezomib (10 nM) and the immunomodulatory drug lenalidomide (5 μM). FIG. 9A is a graph showing the effect of the combination therapy on H929 cells after 48 hours. FIG. 9B is a graph showing the effect of the combination therapy on RPMI-8226 cells after 48 hours. FIG. 9C is a graph showing the effect of the combination therapy on MM1S cells after 48 hours. FIG. 9D is a graph showing the effect of the combination therapy on U266 cells after 48 hours.
(§3) The ability of peripheral blood NK cells with or without B7-H3-TriKE to kill myeloma cells was compared in live imaging IncuCyte Zoom assays with escalating doses of TriKE. Maximal killing occurred with 3 nM concentration.
(§4) The efficacy of B7-H3-TriKE with the proteasome inhibitor bortezomib (10 nM) and the immunomodulatory drug lenalidomide (5 μM) was also tested. Cytotoxicity curves were compared by repeated measures ANOVA and performed in triplicate.

[3] = test system: RPMI-8226 cells; assay: IncuCyte Zoom NK cell killing of RPMI-8226; conditions: bortezomib 10 nM or lenalidomide 5 μM with B7-H3-TriKE and NK cells, 48 hours
Source text: as §1, with “8A-8D” for “7A-7B”, “8A is a graph showing the effects with effector:target (E:T) ratios of 2:1 and 4:1 on H929 cells. FIG. 8B” for “7A”, “8C is a graph showing the effects with effector:target (E:T) ratios of 2:1 and 4:1 on RPMI-8226 cells. FIG. 8D” for “7B”
as §2, §3, §4

[4] = test system: H929 cells; assay: IncuCyte Zoom NK cell killing of H929; conditions: bortezomib 10 nM or lenalidomide 5 μM with B7-H3-TriKE and NK cells, 48 hours
Source text: as §1, with “8A-8D” for “7A-7B”, “8A is a graph showing the effects with effector:target (E:T) ratios of 2:1 and 4:1 on H929 cells. FIG. 8B” for “7A”, “8C is a graph showing the effects with effector:target (E:T) ratios of 2:1 and 4:1 on RPMI-8226 cells. FIG. 8D” for “7B”
as §2, §3, §4

[5] = test system: T cells (CD56−CD3+); assay: T cell proliferation in PBMCs, CellTrace Violet dilution; conditions: 7 days, 5 nM equimolar
Procedure: FIGS. 2A-2H illustrates that cam1615B7-H3 TriKE induces potent, and specific, natural killer (NK) cell proliferation. Peripheral blood mononuclear cells (PBMCs) were CellTrace Violet labeled and incubated for seven days at 5 nM equimolar concentrations of rhIL-15 or cam1615B7-H3 TriKE. On day 7, the cells were harvested and stained for flow cytometric evaluation. […] FIG. 2B is a graph illustrating pooled data showing the overall proportion of NK cells that proliferated. FIG. 2C is a graph illustrating pooled data showing the proportion of NK cells that highly proliferated (measured as proliferation beyond three divisions). FIG. 2D is a graph illustrating pooled data showing NK cell counts in the cultures (N=9). FIG. 2E is a representative histogram showing T cell (CD56− CD3+) proliferation. FIG. 2F is a graph illustrating pooled data showing the overall proportion of T cells proliferated. FIG. 2G is a graph illustrating pooled data showing the proportion of T cells highly proliferated. FIG. 2H is a graph illustrating pooled data showing T cell counts in the cultures (N=9). * p<0.05, ** p<0.01, *** p<0.001.
The wild-type IL-15 moiety in the cam1615B7-H3 TriKE was designed to induce targeted delivery of a proliferative signal to NK cells. To test this, proliferation assays evaluating dilution of a CellTrace dye over a 7-day period were carried out on PBMCs treated with no treatment (NT), monomeric rhIL-15 (IL15), or the TriKE (cam1615B7-H3). At the end of the seven days, cells were harvested and proliferation was evaluated by gating on CD56+CD3− cells. […] Since IL-15 acts on both NK cells and T cells, specificity was evaluated next by gating on T cells (CD56-CD3+).
To measure the ability of the TriKE to specifically induce NK cell expansion via the IL-15 moiety, PBMCs from healthy donors were labeled with CellTrace Violet Proliferation Dye (Invitrogen, Carlsbad, CA, USA) according to kit specifications. After staining, cells were cultured with TriKEs at noted concentrations, or equimolar concentrations of controls, and incubated in a humidified atmosphere containing 5% CO2 at 37° C. for seven days. Cells were harvested, stained for viability with Live/Dead reagent (Invitrogen, Carlsbad, CA, USA) and surface stained for anti-CD56 PE/Cy7 (Biolegend, San Diego, CA, USA) and anti-CD3 PE-CF594 (BD Biosciences, Franklin Lakes, NJ, USA) to gate on the viable CD56+ CD3− NK cell population or the CD56-CD3+ T cell population. Data analysis was performed using FlowJo software (FlowJo LCC, version 7.6.5, Ashland, OR, USA).

[6] = test system: OVCAR8 ovarian cancer cells; assay: NK cell CD107a / IFNγ flow cytometry against OVCAR8; conditions: individual components with PBMCs and OVCAR8
Procedure: FIG. 29A is a graph illustrating pooled proportion of NK cells from healthy donors expressing CD107a+ (degranulation) against OVCAR8 and MA148 targets. FIG. 29B is a graph illustrating pooled proportion of NK cells from healthy donors expressing IFNγ cytokine production against OVCAR8 and MA148 targets.
Healthy donor or ovarian cancer PBMC cells were incubated with ovarian tumor targets at 2:1 E:T ratio for 4 hrs with 30 nM TriKE or control condition. FIG. 30A is a graph illustrating pooled proportion of NK cells from healthy donors expressing CD107a+ (degranulation) against OVCAR8 targets (N=8). FIG. 30B is a graph illustrating pooled proportion of NK cells from healthy donors expressing IFNγ cytokine production against OVCAR8 targets (N=8). FIG. 30C is a graph illustrating pooled proportion of NK cells from healthy donors expressing CD107a+ (degranulation) against OVCAR3 targets (N=4). FIG. 30D is a graph illustrating pooled proportion of NK cells from healthy donors expressing IFNγ cytokine production against OVCAR3 targets (N=4). FIG. 30E is a graph illustrating pooled proportion of NK cells from healthy donors expressing CD107a+ (degranulation) against OVCAR5 targets (N=7). FIG. 30F is a graph illustrating pooled proportion of NK cells from healthy donors expressing IFNγ cytokine production against OVCAR5 targets (N=7). […] FIG. 30I is a graph illustrating that tumor killing was evaluated using IncuCyte imaging assay. […] The percentage of Live (Nuclight Red+Caspase 3/7−) tumor cells was quantified over a 48-h period and normalized to tumor alone. Readings were obtained every 15 min (representative of four separate experiments). * p<0.05, ** p<0.01, *** p<0.001, and **** p<0.0001.
ADCC was measured in a flow cytometry assay by evaluating degranulation via CD107a (lysosomal-associated membrane protein LAMP-1) and intracellular IFNγ production. […] Samples were washed and evaluated in an LSRII flow cytometer (BD Biosciences, San Jose, CA, USA).
The ability of cam1615B7-H3 TriKE to mediate NK cell activity against ovarian cancer cells was evaluated. […]

Compound | killing of U266 in combination therapy [1] | killing of MM1S in combination therapy [2] | killing of RPMI-8226 in combination therapy [3] | killing of H929 in combination therapy [4] | overall T cell proliferation [5] | NK cell activity against OVCAR8 by individual components [6]
CC(C)C[C@H](NC(=O)[C@H](Cc1ccccc1)NC(=O)c1cnccn1)B(O)O [bortezomib, reference compound] | enhanced killing | trend toward improved killing | synergistic killing | did not further enhance killing |  | 
rhIL-15: monomeric recombinant human IL-15 control [reference compound] |  |  |  |  | robust proliferation of T cells | do not enhance NK cell activity
Nc1cccc2c1CN(C1CCC(=O)NC1=O)C2=O (stereo not drawn) [lenalidomide] |  | trend toward improved killing | synergistic killing | synergistic killing |  | 
